Results: US20240148821A1, “PHARMACEUTICAL USE OF CYCLIC PEPTIDE COMPOUND” (CHUGAI SEIYAKU KABUSHIKI KAISHA, priority 2021, published 2024)
Numbered stars: 1 amine (or outer) side, 2 acyl side, 3 side chain; on linkers, the order of the positions; unused ones are H or OH. Bridge positions count the residues as written; N and C are the ends. Square brackets hold non-standard residues; d marks the D form. Peptide text beside a SMILES is read from it. * marks the point of attachment. hPhe(3,5-F2-4-CF3) = N[C@@H](CCc1cc(F)c(C(F)(F)F)c(F)c1)C(=O)O; hPhe(3-Cl-4-CF3) = N[C@@H](CCc1ccc(C(F)(F)F)c(Cl)c1)C(=O)O; hPhe(3-F,4-CF3) = N[C@@H](CCc1ccc(C(F)(F)F)c(F)c1)C(=O)O; NEtPhe(4-CF3) = CCN[C@@H](Cc1ccc(C(F)(F)F)cc1)C(=O)O; NMePhe(4-CF3) = CN[C@@H](Cc1ccc(C(F)(F)F)cc1)C(=O)O; NMePhe(4-Cl) = CN[C@@H](Cc1ccc(Cl)cc1)C(=O)O; NMePhe(4-Me) = CN[C@@H](Cc1ccc(C)cc1)C(=O)O; X10 = C#Cc1cccc(C[C@H](N[*:1])C(=O)[*:2])c1; NMeNle(6-CHF2) = CN[C@@H](CCCCC(F)F)C(=O)O; NMedβ3hAla = C[C@H](CC(=O)[*:2])N(C)[*:1]; NMeGly(cPent) = CN[C@H](C(=O)O)C1CCCC1; NMeGly(cBu) = CN[C@H](C(=O)O)C1CCC1; NMeCha = CN[C@@H](CC1CCCCC1)C(=O)O; NMehLeu = CN[C@@H](CCC(C)C)C(=O)O; Hyp = O=C(O)[C@@H]1C[C@@H](O)CN1; NMeChg = CN[C@H](C(=O)O)C1CCCCC1; NMeI = CC[C@H](C)[C@H](NC)C(=O)O; NMeD = CN[C@@H](CC(=O)O)C(=O)O; NMeL = CN[C@@H](CC(C)C)C(=O)O; NMeNva = CCC[C@H](NC)C(=O)O; NMeV = CN[C@H](C(=O)O)C(C)C; Trifluoroethyl = FC(F)(F)C*; NMeS = CN[C@@H](CO)C(=O)O; NPhGly = O=C(O)CNc1ccccc1; Morpholide = C1CN(*)CCO1; NMeA = CN[C@@H](C)C(=O)O; NMeAib = CNC(C)(C)C(=O)O; Nle = CCCC[C@H](N)C(=O)O; Piperidide = C1CCN(*)CC1; Pyrrolidide = C1CCN(*)C1; Ac5c = NC1(C(=O)O)CCCC1; Aze = O=C(O)[C@@H]1CCN1; Sar = CNCC(=O)O; Propyl = CCC*

Assays:
[1] = biological target: protein-protein interaction between Kras and SOS1 (biotin-tagged human Kras loaded with GDP, His-tagged human SOS1) (Homo sapiens (Human), UniProt P01116, G12D); assay: Protein-protein interaction inhibition between Kras and SOS1 (KrasG12D-SOS PPI) using AlphaScreen; assay type: biochemical; settings: AlphaScreen; biotin-tagged human Kras loaded with GDP, His-tagged human SOS1; read-out: KRAS G12D-SOS PPI IC50;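 note: kras produced in E. coli, Ni-coupled donor beads and streptavidin acceptor beads, excitation 680 nm with emission detected at 520–620 nm via singlet oxygen transfer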
[2] = tested on: Human pancreatic cancer cell line AsPC-1 (G12D mutation Kras); assay: AsPC-1 cell growth inhibition (AsPC-1 CGI); assay type: cell-based; settings: read-out: AsPC-1 cell growth inhibition, 50% growth inhibitory concentration (IC50 value); 96 hours, CellTiter-Glo, values classified in ranges

Structure (SMILES) | IC50 [1] [nM] | IC50 [2] [nM]
C#Cc1cccc(C[C@@H]2NC(=O)CN(C)C(=O)[C@H](Cc3ccc(Cl)cc3)N(C)C(=O)CN(C)C(=O)CN(C)C(=O)[C@H]([C@@H](C)CC)NC(=O)[C@H](CC(C)C)N(C)C(=O)C[C@@H](C(=O)N3CCCCC3)N(C)C(=O)[C@H](CC(C)C)NC(=O)C(C)(C)N(C)C(=O)[C@H](CCCC)NC2=O)c1 [Compound 2142, (3S,9S,12S,18S,27S,30S,34S)-9-butyl-18-[(4-chlorophenyl)methyl]-12-[(3-ethynylphenyl)methyl]-3,30-diisobutyl-1,6,6,7,16,19,22,25,31-nonamethyl-27-[(1S)-1-methylpropyl]-34-(piperidine-1-carbonyl)-1,4,7,10,13,16,19,22,25,28,31-undecazacyclotetratriacontane-2,5,8,11,14,17,20,23,26,29,32-undecone] ([NMeL]I[Sar][Sar][NMePhe(4-Cl)][Sar][X10][Nle][NMeAib]L[NMeD]-Piperidide; lactam N-11) | 44 | > 500
CCO[C@@H]1C[C@H]2C(=O)NC3(CCCC3)C(=O)N(C)[C@@H]([C@@H](C)CC)C(=O)N(C)[C@H](C)CC(=O)N(C)[C@@H](CC(C)C)C(=O)N[C@@H]([C@@H](C)CC)C(=O)N(C)[C@@H](C)C(=O)N3CC[C@H]3C(=O)N(C)[C@@H](Cc3ccc(C(F)(F)F)cc3)C(=O)N(C)CC(=O)N[C@@H](CCc3cc(F)c(C(F)(F)F)c(F)c3)C(=O)N2C1 [Compound 362] (cyclo([Ac5c][NMeI][NMedβ3hAla][NMeL]I[NMeA][Aze][NMePhe(4-CF3)][Sar][hPhe(3,5-F2-4-CF3)][Hyp](Et))) | 0.66 | ≤ 20
CC(C)C[C@H]1C(=O)N[C@@H](COCC(F)(F)F)C(=O)N(C)[C@@H](C)C(=O)N2CC[C@H]2C(=O)N(C)[C@@H](CC2CCCCC2)C(=O)N(C)CC(=O)N[C@@H](CCc2ccc(C(F)(F)F)c(Cl)c2)C(=O)N2CCC[C@H]2C(=O)NC2(CCCC2)C(=O)N(C)[C@@H](C(C)C)C(=O)N(C)[C@H](C(=O)N2CCCCC2)CC(=O)N1C [Compound 304] ([NMeL]S(Trifluoroethyl)[NMeA][Aze][NMeCha][Sar][hPhe(3-Cl-4-CF3)]P[Ac5c][NMeV][NMeD]-Piperidide; lactam N-11) | 87 | > 500
CCC[C@H]1C(=O)N[C@@H]([C@@H](C)CC)C(=O)N(C)CC(=O)N(C)CC(=O)N(C)[C@@H](Cc2ccc(C)cc2)C(=O)N(C)CC(=O)N[C@@H](CCc2cc(F)c(C(F)(F)F)c(F)c2)C(=O)N2C[C@H](OCC)C[C@H]2C(=O)NC2(CCCC2)C(=O)N(C)[C@@H](C2CCCCC2)C(=O)N(C)[C@H](C(=O)N2CCCC2)CC(=O)N1C [Compound 1224] ([NMeNva]I[Sar][Sar][NMePhe(4-Me)][Sar][hPhe(3,5-F2-4-CF3)][Hyp](Et)[Ac5c][NMeChg][NMeD]-Pyrrolidide; lactam N-11) | 0.67 | ≤ 20
CC[C@H](C)[C@@H]1NC(=O)[C@H](CC(C)C)N(C)C(=O)C[C@@H](C(=O)N2CCCCC2)N(C)C(=O)[C@H](C(C)C)N(C)C(=O)C2(CCCC2)NC(=O)[C@H](C)N(C)C(=O)[C@H](CCc2ccc(C(F)(F)F)c(Cl)c2)NC(=O)CN(C)C(=O)[C@H](CC2CCCCC2)N(C)C(=O)CN(C)C(=O)CN(C)C1=O [Compound 939] ([NMeL]I[Sar][Sar][NMeCha][Sar][hPhe(3-Cl-4-CF3)][NMeA][Ac5c][NMeV][NMeD]-Piperidide; lactam N-11) | 8 | > 500
CC[C@H](C)[C@@H]1NC(=O)[C@H](C)N(C)C(=O)C[C@@H](C(=O)N2CCCCC2)N(C)C(=O)[C@H](C(C)C)N(C)C(=O)C2(CCCC2)NC(=O)[C@H](Cc2ccc(Cl)cc2)N(C)C(=O)[C@H](CCc2ccc(C(F)(F)F)c(Cl)c2)NC(=O)CN(C)C(=O)[C@H](CC2CCCCC2)N(C)C(=O)CN(C)C(=O)CN(C)C1=O [Compound 718] ([NMeA]I[Sar][Sar][NMeCha][Sar][hPhe(3-Cl-4-CF3)][NMePhe(4-Cl)][Ac5c][NMeV][NMeD]-Piperidide; lactam N-11) | 39 | > 500
CC[C@H](C)[C@@H]1NC(=O)[C@H](CC(C)C)N(C)C(=O)C[C@@H](C)N(C)C(=O)[C@H]([C@@H](C)CC)N(C)C(=O)C2(CCCC2)NC(=O)[C@@H]2CCCN2C(=O)[C@H](CCc2ccc(C(F)(F)F)c(F)c2)NC(=O)CN(C)C(=O)[C@H](Cc2ccc(C)cc2)N(C)C(=O)[C@@H]2CCN2C(=O)[C@H](C)N(C)C1=O [Compound 404] (cyclo([Ac5c][NMeI][NMedβ3hAla][NMeL]I[NMeA][Aze][NMePhe(4-Me)][Sar][hPhe(3-F,4-CF3)]P)) | 4.8 | ≤ 20
CC[C@H](C)[C@@H]1NC(=O)[C@H](CC(C)C)N(C)C(=O)C[C@@H](C(=O)N2CCCCC2)N(C)C(=O)[C@H](COC)N(C)C(=O)C2(CCCC2)NC(=O)[C@@H]2CCCN2C(=O)[C@H](CCc2ccc(C(F)(F)F)c(Cl)c2)NC(=O)CN(C)C(=O)[C@H](CC2CCCCC2)N(C)C(=O)[C@@H]2CCN2C(=O)[C@H](C)N(C)C1=O [Compound 484] ([NMeL]I[NMeA][Aze][NMeCha][Sar][hPhe(3-Cl-4-CF3)]P[Ac5c][NMeS](Me)[NMeD]-Piperidide; lactam N-11) | 110 | > 500
CC[C@H](C)[C@@H]1NC(=O)[C@H](CC(C)C)N(C)C(=O)C[C@@H](C(=O)N2CCOCC2)N(C)C(=O)[C@H]([C@@H](C)CC)N(C)C(=O)C2(CCCC2)NC(=O)[C@@H]2CCCN2C(=O)[C@H](CCc2ccc(C(F)(F)F)c(Cl)c2)NC(=O)CN(C)C(=O)[C@H](Cc2ccc(C(F)(F)F)cc2)N(CC)C(=O)[C@@H]2CCN2C(=O)[C@H](C)N(C)C1=O [Compound 1312] ([NMeL]I[NMeA][Aze][NEtPhe(4-CF3)][Sar][hPhe(3-Cl-4-CF3)]P[Ac5c][NMeI][NMeD]-Morpholide; lactam N-11) | 0.74 | ≤ 20
CC[C@H](C)[C@@H]1NC(=O)[C@H](CC(C)C)N(C)C(=O)C[C@@H](C(=O)N2CCCCC2)N(C)C(=O)[C@H](CCCCC(F)F)N(C)C(=O)C2(CCCC2)NC(=O)[C@@H]2CCCN2C(=O)[C@H](CCc2ccc(C(F)(F)F)c(Cl)c2)NC(=O)CN(C)C(=O)[C@H](CC2CCCCC2)N(C)C(=O)[C@@H]2CCN2C(=O)[C@H](C)N(C)C1=O [Compound 1123] ([NMeL]I[NMeA][Aze][NMeCha][Sar][hPhe(3-Cl-4-CF3)]P[Ac5c][NMeNle(6-CHF2)][NMeD]-Piperidide; lactam N-11) | 180 | > 500
CC[C@H](C)[C@@H]1NC(=O)[C@H](CCC(C)C)N(C)C(=O)C[C@@H](C(=O)N2CCOCC2)N(C)C(=O)[C@H]([C@@H](C)CC)N(C)C(=O)C2(CCCC2)NC(=O)[C@@H]2CCCN2C(=O)[C@H](CCc2ccc(C(F)(F)F)c(Cl)c2)NC(=O)CN(C)C(=O)[C@H](Cc2ccc(C(F)(F)F)cc2)N(C)C(=O)[C@@H]2CCN2C(=O)[C@H](C)NC1=O [Compound 1356] ([NMehLeu]IA[Aze][NMePhe(4-CF3)][Sar][hPhe(3-Cl-4-CF3)]P[Ac5c][NMeI][NMeD]-Morpholide; lactam N-11) | 1.1 | ≤ 20
CC[C@H](C)[C@@H]1NC(=O)[C@H](CC(C)C)N(C)C(=O)C[C@@H](C(=O)N2CCCC2)N(C)C(=O)[C@H]([C@@H](C)CC)N(C)C(=O)C2(CCCC2)NC(=O)[C@@H]2CCCN2C(=O)[C@H](CCc2ccc(C(F)(F)F)c(Cl)c2)NC(=O)CN(C)C(=O)[C@H](CC2CCCCC2)N(C)C(=O)[C@@H]2CCN2C(=O)[C@H](C)N(C)C1=O [Compound 1843] ([NMeL]I[NMeA][Aze][NMeCha][Sar][hPhe(3-Cl-4-CF3)]P[Ac5c][NMeI][NMeD]-Pyrrolidide; lactam N-11) | 0.84 | ≤ 20
CC[C@H](C)[C@@H]1NC(=O)[C@H](C)N(C)C(=O)C[C@@H](C)N(C)C(=O)[C@H](C2CCC2)N(C)C(=O)C(C)(C)N(C)C(=O)CN(c2ccccc2)C(=O)[C@H](CCc2ccc(C(F)(F)F)c(Cl)c2)NC(=O)CN(C)C(=O)[C@H](CC2CCCCC2)N(C)C(=O)CN(C)C(=O)CN(C)C1=O [Compound 2145] (cyclo(I[Sar][Sar][NMeCha][Sar][hPhe(3-Cl-4-CF3)][NPhGly][NMeAib][NMeGly(cBu)][NMedβ3hAla][NMeA])) | 22 | > 500
CC[C@H](C)[C@@H]1NC(=O)[C@H](CC(C)C)N(C)C(=O)C[C@@H](C(=O)N2CCCCC2)N(C)C(=O)[C@H](CC2CCCCC2)N(C)C(=O)C2(CCCC2)NC(=O)[C@@H]2CCCN2C(=O)[C@H](CCc2ccc(C(F)(F)F)c(Cl)c2)NC(=O)CN(C)C(=O)[C@H](CC2CCCCC2)N(C)C(=O)[C@@H]2CCN2C(=O)[C@H](C)N(C)C1=O [Compound 87] ([NMeL]I[NMeA][Aze][NMeCha][Sar][hPhe(3-Cl-4-CF3)]P[Ac5c][NMeCha][NMeD]-Piperidide; lactam N-11) | 45 | > 500
CCCOC[C@H]1C(=O)N(C)CC(=O)N[C@@H](CCc2ccc(C(F)(F)F)c(F)c2)C(=O)N2CCC[C@H]2C(=O)NC2(CCCC2)C(=O)N(C)[C@@H](C2CCCC2)C(=O)N(C)[C@H](C(=O)N(C)C)CC(=O)N(C)[C@@H](CC(C)C)C(=O)N[C@@H]([C@@H](C)CC)C(=O)N(C)[C@@H](C)C(=O)N2CC[C@H]2C(=O)N1C [Compound 289] ([NMeL]I[NMeA][Aze][NMeS](Propyl)[Sar][hPhe(3-F,4-CF3)]P[Ac5c][NMeGly(cPent)][NMeD]-NMe2; lactam N-11) | 0.3 | ≤ 20
CCCOC[C@@H]1NC(=O)[C@H](CC(C)C)N(C)C(=O)C[C@@H](C(=O)N2CCCCC2)N(C)C(=O)[C@H](C(C)C)N(C)C(=O)C2(CCCC2)NC(=O)[C@@H]2CCCN2C(=O)[C@H](CCc2ccc(C(F)(F)F)c(Cl)c2)NC(=O)CN(C)C(=O)[C@H](CC2CCCCC2)N(C)C(=O)[C@@H]2CCN2C(=O)[C@H](C)N(C)C1=O [Compound 1831] ([NMeL]S(Propyl)[NMeA][Aze][NMeCha][Sar][hPhe(3-Cl-4-CF3)]P[Ac5c][NMeV][NMeD]-Piperidide; lactam N-11) | 71 | > 500
